Test results: publication PMC11679033, “Assessing the Potential Synergistic/Antagonistic Effects of Citrinin and Cannabidiol on SH-SY5Y, HepG2, HEK293 Cell Lines, and Human Lymphocytes” (Toxins, 2024)
Marks after values point to notes of the source that are not given here.

What was measured:
[1] = system: human peripheral blood lymphocytes; assay: Cytokinesis-Block Micronucleus Cytome (CBMN Cyt) Assay; settings: 24 h, citrinin 30 µM, CBD 1 µM, bleomycin 1.25 µg/mL; for Distribution of BNMN Cells with 1 MN / Distribution of BNMN Cells with 2 MNi / Distribution of BNMN Cells with 3 MNi / Distribution of BNNB Cells with 1 NB / Distribution of BNNB Cells with 2 NBs / Micronuclei (MNi) and BNMN Cells: Total (BNNB)6000 / Micronuclei (MNi) and BNMN Cells: Total (MNi)6000 / Nuclear Buds (NBs) and BNNB Cells: Total (BNNB)6000 / Nuclear Buds (NBs) and BNNB Cells: Total (NBs)6000 / Nucleoplasmic Bridges (NPBs) and BNNPB Cells: Total (BNNPB)6000 / Nucleoplasmic Bridges (NPBs) and BNNPB Cells: Total (NPBs)6000: in 6000 BN cells; for Cell Death: Total (Apoptosis)6000 / Cell Death: Total (Necrosis)6000: in 6000 cells; for Micronuclei (MNi) and BNMN Cells: Mean (BNMN)1000 ± SD / Micronuclei (MNi) and BNMN Cells: Mean (MNi)1000 ± SD / Nuclear Buds (NBs) and BNNB Cells: Mean (BNNB)1000 ± SD / Nuclear Buds (NBs) and BNNB Cells: Mean (NBs)1000 ± SD / Nucleoplasmic Bridges (NPBs) and BNNPB Cells: Mean (BNNPB)1000 ± SD / Nucleoplasmic Bridges (NPBs) and BNNPB Cells: Mean (NPBs)1000 ± SD: per 1000 BN cells; for Cell Death: Mean (Apoptosis)1000 ± SD / Cell Death: Mean (Necrosis)1000 ± SD: per 1000 cells
Description: (§1) The experimental design included the establishment of lymphocyte cultures, and the 24 h treatments with the test compounds, performed according to the last OECD recommendations, given in the Test Guideline No. 487—In Vitro Mammalian Cell Micronucleus Test.
(§2) The selection of specific concentrations of test compounds adhered to the guidelines for in vitro genotoxicity testing using comet assay. […] Solutions used in testing were prepared just prior to treatment by dissolving the test compounds in ethanol (Kemika, Zagreb, Croatia).
(§3) Two independent trials, with six experimental groups each, were conducted. A total of six replicate cultures for every single experimental group were established. This step was carried out as follows: aliquots of heparinized blood (V = 600 μL per culture) were pipetted into a growth medium RPMI-1640 (Gibco, Grand Island, NY, USA) supplemented with 10% fetal calf serum (Gibco, Grand Island, NY, USA) and antibiotics (penicillin and streptomycin; Sigma-Aldrich, Steinheim, Germany). Lymphocytes were stimulated with a mitogen phytohemagglutinin (Remel, Lenexa, KS, USA) in order to induce cell division prior to exposure to the test chemicals. Cultures were maintained in the humidified atmosphere of 5% CO2 at 37 °C (Heraeus Hera Cell 240 incubator; Langenselbold, Germany).
(§4) Negative controls (NCs) were non-treated lymphocytes. Solvent controls (SCs) were lymphocytes treated with ethanol (its final concentration in the culture corresponded to 0.03%). Positive controls (PCs) were lymphocytes treated for 24 h with bleomycin at 1.25 µg/mL (according to [69]). The other three groups were lymphocytes exposed to single CIT, single CBD, and their combination (CIT + CBD, at the same concentrations).
(§5) Treatments with test compounds started 20 h after the initial establishment of the cell cultures and lasted for 24 h. Upon completion of the exposure, aliquots of 100 µL of the treated cultures were pipetted in sterile conditions and used to prepare microgels for the alkaline comet assay. The remaining content of flasks was further processed using Cytokinesis-Block Micronucleus Cytome (CBMN Cyt) Assay.
CBMN Cyt Assay was performed according to standard protocols proposed for micronucleus assay. Upon completion of the exposure, lymphocyte cultures were subjected to centrifugation at 100× g using a benchtop centrifuge (ROTOFIX 32A, Hettich, Tuttlingen, Germany). During this process, cells settled to the bottom of the tube. The growth medium with tested compounds was removed by pipetting, discarded and replaced with a fresh amount of complete growth medium RPMI-1640 that contained Cytochalasin B (cytoB; Sigma-Aldrich, Steinheim, Germany) at a final concentration of 6 µg/mL. This procedure was timed to the 44th hour of lymphocyte cultivation, as that time is a critical point for the addition of cytoB to inhibit cytokinesis and obtain binucleated cells. All treated and control cultures were further maintained in the previously described conditions at 37 °C until the end of the 72nd hour of cultivation, as proposed by protocols. Then, the preparation of microscopic slides started, which included harvesting of cells by centrifugation (100× g, ROTOFIX 32A centrifuge, Hettich, Tuttlingen, Germany), followed by hypotonic treatment (0.075 mol/L KCl; Kemika, Zagreb, Croatia), and a new round of centrifugation. The resulting sediments of cells were fixed in several repeating stages with methanol–acetic acid (3:1 v/v; both obtained from Kemika, Zagreb, Croatia) followed by centrifugation. The final lymphocyte suspension was dropped onto clean microscope slides.

[2] = system: human peripheral blood lymphocytes; assay: Lymphocyte proliferation / cytotoxicity (CBPI, RI); assay type: cell-based; settings: 24 h, citrinin 7.50 µg/mL, CBD 3.15 µg/mL, bleomycin 1.25 µg/mL; for Cytokinesis-Block Proliferation Index: 3000 cells scored; for Replication Index (%): relative to negative control
Text: (§6) On the same slides, parameters of cell proliferation, cytostasis and cytotoxicity were studied, according to recommendations by OECD 2023 [67]. For that purpose, the numbers of mono-, bi-, tri-, and quadrinuclear cells (i.e., M1, M2, M3, M4) were scored at 400× magnification using a light microscope (Leitz, Oberkochen, Germany). The total number of M1 to M4 cells counted per experimental group was 3000 (i.e., 6 × 500 cells).
(§7) Based on the scored ratios of M1 to M4 cells, the Cytokinesis-Block Proliferation Index (CBPI) was calculated, using the formula: CBPI = [(No. of mononucleated cells) + (2 × No. of binucleated cells) + (3 × No. of multinucleated cells)]/(Total number of cells).
(§8) To establish the relative number of cell cycles per cell during the period of exposure to cytoB in treated compared to control cultures, the Replication Index (RI) was also calculated according to the formula:RI = {[(<No. binucleated cells> + <2 × No. multinucleated cells>)/(Total number of cells in treated culture)]/[(<No. binucleated cells> + <2 × No. multinucleated cells>) […] (Total number of cells in control culture)]} × 100
(§9) Finally, from the obtained values of RI, the cytotoxicity estimate was deduced, as % Cytotoxicity = […].

[3] = Lymphocyte proliferation / cytotoxicity (CBPI, RI); assay type: cell-based, human; settings: human, citrinin 7.50 µg/mL, CBD 3.15 µg/mL, bleomycin 1.25 µg/mL, deduced from RI
Text: as §6, §7, §8, §9

SH-SY5Y cells = assay: Cell membrane integrity (LDH release), SH-SY5Y; assay type: cell-based, human; settings: 24 h, CBD 1 μM, CIT 30 μM, alone or combined
Description: Cell membrane integrity was determined after exposure to compounds’ concentrations corresponding to LOAEL concentrations in 24 h by measuring the release of the intracellular lactate dehydrogenase (LDH) and the procedure followed a previously described protocol using The CytoTox-ONE™ Homogeneous Membrane Integrity Assay (Promega, Madison, WI, USA). In short, the cells were seeded in black 96-well plates at a density of 10,000 cells/well one day before the experiment and treated with selected LOAEL concentrations. Triton X-100 at a final concentration of 0.18% (v/v) (stock of 9% in water) was used as a positive control to determine the maximal LDH release. Data were taken from at least two independent experiments (each treatment performed in duplicate or triplicate) and plotted as a percentage of LDH release compared to the determined maximal LDH release, according to the manufacturer’s calculation protocol.

[4] = system: human peripheral blood lymphocytes; assay: Alkaline comet assay; assay type: cell-based; settings: 24 h, CIT 30 µM; for tail intensity, mean value ± SE: CBD 1 µM, bleomycin 1.25 µg/mL
Description: as §1, §2, §3, §4, §5

Compound: CC1=C2C(=CO[C@H](C)[C@H]2C)C(O)=C(C(=O)O)C1=O [CIT, citrinin]
- Distribution of BNMN Cells with 1 MN [1]: 66 ^a,b,d,e
- Distribution of BNMN Cells with 2 MNi [1]: 5
- Distribution of BNMN Cells with 3 MNi [1]: 0
- Distribution of BNNB Cells with 1 NB [1]: 69 ^a,b,d,e
- Distribution of BNNB Cells with 2 NBs [1]: 5
- Micronuclei (MNi) and BNMN Cells: Total (BNNB)6000 [1]: 71^a,b,d,e
- Micronuclei (MNi) and BNMN Cells: Total (MNi)6000 [1]: 74 ^a,b,d,e
- Nuclear Buds (NBs) and BNNB Cells: Total (BNNB)6000 [1]: 74 ^a,b,d,e
- Nuclear Buds (NBs) and BNNB Cells: Total (NBs)6000 [1]: 79 ^a,b,d,e
- Nucleoplasmic Bridges (NPBs) and BNNPB Cells: Total (BNNPB)6000 [1]: 4
- Nucleoplasmic Bridges (NPBs) and BNNPB Cells: Total (NPBs)6000 [1]: 4
- Cell Death: Total (Apoptosis)6000 [1]: 50 ^a,b,d,e
- Cell Death: Total (Necrosis)6000 [1]: 45 ^a,b,d,e
- Micronuclei (MNi) and BNMN Cells: Mean (BNMN)1000 ± SD [1]: 11.7 ± 1.4 ^a,b,d,e
- Micronuclei (MNi) and BNMN Cells: Mean (MNi)1000 ± SD [1]: 12.3 ± 1.6 ^a,b,d,e
- Nuclear Buds (NBs) and BNNB Cells: Mean (BNNB)1000 ± SD [1]: 12.3 ± 3.1 ^a,b,d,e
- Nuclear Buds (NBs) and BNNB Cells: Mean (NBs)1000 ± SD [1]: 13.2 ± 3.7 ^a,b,d,e
- Nucleoplasmic Bridges (NPBs) and BNNPB Cells: Mean (BNNPB)1000 ± SD [1]: 0.7 ± 0.5
- Nucleoplasmic Bridges (NPBs) and BNNPB Cells: Mean (NPBs)1000 ± SD [1]: 0.7 ± 0.5
- Cell Death: Mean (Apoptosis)1000 ± SD [1]: 8.3 ± 1.6 ^a,b,d,e
- Cell Death: Mean (Necrosis)1000 ± SD [1]: 7.5 ± 0.8 ^a,b,d,e
- Cytokinesis-Block Proliferation Index [2]: 1.83^↓nc, sc, cbd, &
- Replication Index (%) [2]: 83.46%
- cytotoxicity at 24 h [3]: 16.5%
- cell membrane integrity (LDH release) (SH-SY5Y cells): not significantly compromised
- group median value of tail intensity [4]: below 10%
- tail intensity, mean value ± SE [4]: 6.56 ± 0.37%

Compound: C=C(C)[C@@H]1CCC(C)=C[C@H]1c1c(O)cc(CCCCC)cc1O [CBD, cannabidiol]
- Distribution of BNMN Cells with 1 MN [1]: 17
- Distribution of BNMN Cells with 2 MNi [1]: 0
- Distribution of BNMN Cells with 3 MNi [1]: 0
- Distribution of BNNB Cells with 1 NB [1]: 25 ^a
- Distribution of BNNB Cells with 2 NBs [1]: 0
- Micronuclei (MNi) and BNMN Cells: Total (BNNB)6000 [1]: 17
- Micronuclei (MNi) and BNMN Cells: Total (MNi)6000 [1]: 17
- Nuclear Buds (NBs) and BNNB Cells: Total (BNNB)6000 [1]: 25 ^a
- Nuclear Buds (NBs) and BNNB Cells: Total (NBs)6000 [1]: 25 ^a
- Nucleoplasmic Bridges (NPBs) and BNNPB Cells: Total (BNNPB)6000 [1]: 0
- Nucleoplasmic Bridges (NPBs) and BNNPB Cells: Total (NPBs)6000 [1]: 0
- Cell Death: Total (Apoptosis)6000 [1]: 19 ^a
- Cell Death: Total (Necrosis)6000 [1]: 9
- Micronuclei (MNi) and BNMN Cells: Mean (BNMN)1000 ± SD [1]: 2.8 ± 0.8
- Micronuclei (MNi) and BNMN Cells: Mean (MNi)1000 ± SD [1]: 2.8 ± 0.8
- Nuclear Buds (NBs) and BNNB Cells: Mean (BNNB)1000 ± SD [1]: 4.2 ± 0.4 ^a
- Nuclear Buds (NBs) and BNNB Cells: Mean (NBs)1000 ± SD [1]: 4.2 ± 0.4 ^a
- Nucleoplasmic Bridges (NPBs) and BNNPB Cells: Mean (BNNPB)1000 ± SD [1]: 0
- Nucleoplasmic Bridges (NPBs) and BNNPB Cells: Mean (NPBs)1000 ± SD [1]: 0
- Cell Death: Mean (Apoptosis)1000 ± SD [1]: 3.2 ± 0.8 ^a,b
- Cell Death: Mean (Necrosis)1000 ± SD [1]: 1.5 ± 1.0
- Cytokinesis-Block Proliferation Index [2]: 1.96^↓nc, sc
- Replication Index (%) [2]: 97.14%
- cytotoxicity at 24 h [3]: 2.86%
- cell membrane integrity (LDH release) (SH-SY5Y cells): not significantly compromised
- tail intensity, mean value ± SE [4]: 1.07 ± 0.08%
